Measurements as given in patent publication US9890133B2 (priority 2011, dated 2018).
Converted amounts (≈) assume the structure as drawn.

Columns and labels:
[1] = in vitro; settings: human
[2] = tested on: Poliovirus 3; assay: microbe, parasite or virus in culture; format: cell-based; settings: Enterovirus C, read-out: Poliovirus3 EC50

Compound | CC50 [1] [µg/mL] | CC50 ([1]; Picorana CC50) [µg/mL] | EC50 [2] [µg/mL]
CCCCC(=O)NC12C(=O)c3c(N)cccc3C1(OC(=O)CCCC)Oc1cc(C(C)C)ccc12 (stereo not drawn) [Example 96, 1-Amino-7-isopropyl-10-oxo-9b-pentanamido-9b,10-dihydro-4bH-benzo[d]indeno[1,2-b]furan-4b-yl pentanoate] | 24 (≈ 50.1 µM) | > 50 | 0.016 (≈ 0.0334 µM)
COC(=O)OC12Oc3cc(C(C)C)ccc3C1(NC(C)=O)C(=O)c1c(N)cccc12 (stereo not drawn) [Example 113, 9b-acetamido-1-amino-7-isopropyl-10-oxo-9b,10-dihydro-4bH-indeno[1,2-b]benzofuran-4b-yl methyl carbonate] | 48.8 (≈ 119 µM) | 45.5 (≈ 111 µM) | < 0.01
CC(C)c1ccc2c(c1)OC1(O)c3cccc(N)c3C(=O)C21NC(=O)C(C)(C)C (stereo not drawn) [Example 114, N-(1-Amino-4b-hydroxy-7-isopropyl-10-oxo-9b,10-dihydro-4bH-benzo[d]indeno[1,2-b]furan-9b-yl)pivalamide] | 43.1 (≈ 109 µM) | 45.9 (≈ 116 µM) | 0.034 (≈ 0.0862 µM)
CCCCOC(=O)OC12Oc3cc(C(C)C)ccc3C1(NC(C)=O)C(=O)c1c(N)cccc12 (stereo not drawn) [Example 115, 9b-Acetamido-1-amino-7-isopropyl-10-oxo-9b,10-dihydro-4bH-benzo[d]indeno[1,2-b]furan-4b-yl butyl carbonate] | 23.1 (≈ 51.1 µM) | 42.8 (≈ 94.6 µM) | < 0.01
CCOC(=O)OC12Oc3cc(C(C)C)ccc3C1(NC(C)=O)C(=O)c1c(N)cccc12 (stereo not drawn) [Example 123, 9b-Acetamido-1-amino-7-isopropyl-10-oxo-9b,10-dihydro-4bH-benzo[d]indeno[1,2-b]furan-4b-yl ethyl carbonate] | 43.4 (≈ 102 µM) | 37.5 (≈ 88.4 µM) | < 0.01
CCC(=O)NC12C(=O)c3c(N)cccc3C1(O)Oc1cc(C(C)C)ccc12 (stereo not drawn) [Example 143, N-(1-Amino-4b-hydroxy-7-isopropyl-10-oxo-9b,10-dihydro-4bH-indeno[1,2-b]benzofuran-9b-yl)propionamide] | 58.1 (≈ 158 µM) | > 50 | < 0.01
CCCC(=O)NC12C(=O)c3c(N)cccc3C1(O)Oc1cc(C(C)C)ccc12 (stereo not drawn) [Example 144, N-(1-Amino-4b-hydroxy-7-isopropyl-10-oxo-9b,10-dihydro-4bH-indeno[1,2-b]benzofuran-9b-yl) butyramide] | 21.7 (≈ 57.1 µM) | 35.5 (≈ 93.3 µM) | < 0.01
CC(C)c1ccc2c(c1)OC1(O)c3cccc(N)c3C(=O)C21NC(=O)c1ccccc1 (stereo not drawn) [Example 153, N-(1-Amino-4b-hydroxy-7-isopropyl-10-oxo-9b,10-dihydro-4bH-indeno[1,2-b]benzofuran-9b-yl)benzamide] | 16 (≈ 38.7 µM) | 9.02 (≈ 21.8 µM) | < 0.01
COc1cccc(C(=O)NC23C(=O)c4c(N)cccc4C2(O)Oc2cc(C(C)C)ccc23)c1 (stereo not drawn) [Example 154, N-(1-Amino-4b-hydroxy-7-isopropyl-10-oxo-9b,10-dihydro-4bH-indeno[1,2-b]benzofuran-9b-yl)-3-methoxybenzamide] | 22.7 (≈ 51.1 µM) | 46.2 (≈ 104 µM) | < 0.01
CC(C)c1ccc2c(c1)OC1(O)c3cccc(N)c3C(=O)C21NC(=O)c1ccc(Cl)cc1 (stereo not drawn) [Example 155, N-(1-Amino-4b-hydroxy-7-isopropyl-10-oxo-9b,10-dihydro-4bH-indeno[1,2-b]benzofuran-9b-yl)-4-chlorobenzamide] | 7.81 (≈ 17.4 µM) | 9.02 (≈ 20.1 µM) | < 0.01
CC(C)c1ccc2c(c1)OC1(O)c3cccc(N)c3C(=O)C21NC(=O)C1CC1 (stereo not drawn) [Example 158, N-(1-Amino-4b-hydroxy-7-isopropyl-10-oxo-9b,10-dihydro-4bH-indeno[1,2-b]benzofuran-9b-yl)cyclopropanecarboxamide] | 39.4 (≈ 104 µM) | 44.7 (≈ 118 µM) | < 0.01
CC(C)c1ccc2c(c1)OC1(O)c3ccccc3C(=O)C21NC(=O)c1cccs1 (stereo not drawn) [Example 161, N-(4b-Hydroxy-7-isopropyl-10-oxo-9b,10-dihydro-4bH-indeno[1,2-b]benzofuran-9b-yl)thiophene-2-carboxamide] | 17.9 (≈ 44.1 µM) | 40.7 (≈ 100 µM) | < 0.01
CC(C)c1ccc2c(c1)OC1(O)c3cccc(N)c3C(=O)C21NC=O (stereo not drawn) [Example 166, N-(1-Amino-4b-hydroxy-7-isopropyl-10-oxo-9b,10-dihydro-4bH-indeno[1,2-b]benzofuran-9b-yl)formamide] | > 10 |  | < 0.01
CC(C)c1ccc2c(c1)OC1(O)c3cccc(N)c3C(=O)C21NC(=O)c1ccc(C#N)cc1 (stereo not drawn) [Example 170, N-(1-Amino-4b-hydroxy-7-isopropyl-10-oxo-9b,10-dihydro-4bH-indeno[1,2-b]benzofuran-9b-yl)-4-cyanobenzamide] | > 10 |  | < 0.01
CC(C)c1ccc2c(c1)OC1(O)c3cccc(N)c3C(=O)C21NC(=O)c1ccc2ccccc2c1 (stereo not drawn) [Example 171, N-(1-Amino-4b-hydroxy-7-isopropyl-10-oxo-9b,10-dihydro-4bH-indeno[1,2-b]benzofuran-9b-yl)-2-naphthamide] | > 10 |  | 0.03 (≈ 0.0646 µM)
CC(C)c1ccc2c(c1)OC1(O)c3cccc(N)c3C(=O)C21NC(=O)C1CCCO1 (stereo not drawn) [Example 174, N-(1-Amino-4b-hydroxy-7-isopropyl-10-oxo-9b,10-dihydro-4bH-benzo[d]indeno[1,2-b]furan-9b-yl)tetrahydrofurane-2-carboxamide] | > 10 |  | 0.019 (≈ 0.0465 µM)
CC(C)c1ccc2c(c1)OC1(O)c3cccc(N)c3C(=O)C21NC(=O)C(F)(F)F (stereo not drawn) [Example 175, N-(1-Amino-4b-hydroxy-7-isopropyl-10-oxo-9b,10-dihydro-4bH-indeno[1,2-b]benzofuran-9b-yl)-2,2,2-trifluoroacetamide] | > 10 | > 11 | < 0.01
CC(C)c1ccc2c(c1)OC1(O)c3cccc(N)c3C(=O)C21NC(=O)Cc1ccccc1 (stereo not drawn) [Example 179, N-(1-Amino-4b-hydroxy-7-isopropyl-10-oxo-9b,10-dihydro-4bH-indeno[1,2-b]benzofuran-9b-yl)-2-phenylacetamide] | > 10 |  | < 0.01
CC(C)c1ccc2c(c1)OC1(O)c3cccc(N)c3C(=O)C21NC(=O)/C=C/c1ccc(Cl)c(Cl)c1 (stereo not drawn) [Example 180] | > 10 | 4.32 (≈ 8.48 µM) | 0.033 (≈ 0.0648 µM)
CC(C)c1ccc2c(c1)OC1(O)c3cccc(N)c3C(=O)C21NC(=O)c1ccc(OCc2ccccc2)cc1 (stereo not drawn) [Example 181, N-(1-Amino-4b-hydroxy-7-isopropyl-10-oxo-9b,10-dihydro-4bH-indeno[1,2-b]benzofuran-9b-yl)-4-(benzyloxy)benzamide] | > 10 |  | 0.036 (≈ 0.0692 µM)
COc1ccccc1C(=O)NC12C(=O)c3c(N)cccc3C1(O)Oc1cc(C(C)C)ccc12 (stereo not drawn) [Example 183, N-(1-Amino-4b-hydroxy-7-isopropyl-10-oxo-9b,10-dihydro-4bH-indeno[1,2-b]benzofuran-9b-yl)-2-methoxybenzamide] | > 10 | 8.54 (≈ 19.2 µM) | 0.014 (≈ 0.0315 µM)
Cc1ccccc1C(=O)NC12C(=O)c3c(N)cccc3C1(O)Oc1cc(C(C)C)ccc12 (stereo not drawn) [Example 186, N-(1-Amino-4b-hydroxy-7-isopropyl-10-oxo-9b,10-dihydro-4bH-benzo[d]indeno[1,2-b]furan-9b-yl)-2-methylbenzamide] | > 10 | 8.31 (≈ 19.4 µM) | 0.026 (≈ 0.0607 µM)
Cc1cccc(C(=O)NC23C(=O)c4c(N)cccc4C2(O)Oc2cc(C(C)C)ccc23)c1 (stereo not drawn) [Example 187, N-(1-Amino-4b-hydroxy-7-isopropyl-10-oxo-9b,10-dihydro-4bH-benzo[d]indeno[1,2-b]furan-9b-yl)-3-methylbenzamide] | > 10 | 7.43 (≈ 17.3 µM) | < 0.01
Cc1ccc(C(=O)NC23C(=O)c4c(N)cccc4C2(O)Oc2cc(C(C)C)ccc23)cc1 (stereo not drawn) [Example 188, N-(1-Amino-4b-hydroxy-7-isopropyl-10-oxo-9b,10-dihydro-4bH-benzo[d]indeno[1,2-b]furan-9b-yl)-4-methylbenzamide] | > 10 | 8.38 (≈ 19.6 µM) | < 0.01
CC(C)c1ccc2c(c1)OC1(O)c3cccc(N)c3C(=O)C21NC(=O)c1ccc2nccnc2c1 (stereo not drawn) [Example 277, N-(1-Amino-4b-hydroxy-7-isopropyl-10-oxo-9b,10-dihydro-4bH-indeno[1,2-b]benzofuran-9b-yl)quinoxaline-6-carboxamide] | > 10 |  | 
Cc1ccn2cc(C(=O)NC34C(=O)c5c(N)cccc5C3(O)Oc3cc(C(C)C)ccc34)nc2c1 (stereo not drawn) [Example 280, N-(1-Amino-4b-hydroxy-7-isopropyl-10-oxo-9b,10-dihydro-4bH-indeno[1,2-b]benzofuran-9b-yl)-7-methylimidazo[1,2-a]pyridine-2-carboxamide] | > 10 |  | 
Cc1cc(C)n2ncc(C(=O)NC34C(=O)c5c(N)cccc5C3(O)Oc3cc(C(C)C)ccc34)c2n1 (stereo not drawn) [Example 282, N-(1-Amino-4b-hydroxy-7-isopropyl-10-oxo-9b,10-dihydro-4bH-indeno[1,2-b]benzofuran-9b-yl)-5,7-dimethylpyrazolo[1,5-a]pyrimidine-3-carboxamide] | > 10 | 6.78 (≈ 14 µM) | 
CC(C)c1ccc2c(c1)OC1(O)c3cccc(N)c3C(=O)C21NC(=O)c1cc2ccccn2c1 (stereo not drawn) [Example 283, N-(1-Amino-4b-hydroxy-7-isopropyl-10-oxo-9b,10-dihydro-4bH-indeno[1,2-b]benzofuran-9b-yl) indolizine-2-carboxamide] | > 10 | 5.47 (≈ 12.1 µM) | 
CC(C)c1ccc2c(c1)OC1(O)c3cccc(N)c3C(=O)C21NC(=O)c1cc(C(C)C)nc2c1cnn2C(C)C (stereo not drawn) [Example 284, N-(1-Amino-4b-hydroxy-7-isopropyl-10-oxo-9b,10-dihydro-4bH-indeno[1,2-b]benzofuran-9b-yl)-1,6-diisopropyl-1H-pyrazolo[3,4-b]pyridine-4-carboxamide] | 3.71 (≈ 6.88 µM) | 4.56 (≈ 8.45 µM) | 
Cc1c(C(=O)NC23C(=O)c4c(N)cccc4C2(O)Oc2cc(C(C)C)ccc23)cnc2ccnn12 (stereo not drawn) [Example 289, N-(1-Amino-4b-hydroxy-7-isopropyl-10-oxo-9b,10-dihydro-4bH-indeno[1,2-b]benzofuran-9b-yl)-7-methylpyrazolo[1,5-a]pyrimidine-6-carboxamide] | > 10 |  | 
